US12677832B2, “Oxadiazole compounds for controlling or preventing phytopathogenic fungi” (PI INDUSTRIES LTD., priority 2019, dated 2026)

System: Phakopsora pachyrhizi
Assay: Phakopsora pachyrhizi Test in Soybean (preventive spray)
Type: in vivo
Details: preventive spray on Soybean plants, inoculated one day after treatment, disease severity vs untreated control
Description: Example 7: Phakopsora pachyrhizi Test in Soybean Compounds were dissolved in 2% dimethyl sulfoxide/acetone and then mixed with water containing an emulsifier to a calibrated spray volume of 50 mL. This 50 mL spray solution was poured into spray bottles for further applications. To test the preventive activity of compounds, healthy young Soybean plants, raised in the greenhouse, were sprayed with the active compound preparation at the stated application rates inside the spray cabinets using hollow cone nozzles. One day after treatment, the plants were inoculated with a spore suspension containing 2×10^5Phakopsora pachyrhizi conidia. The inoculated plants were then kept in a greenhouse chamber at 22-24° C. temperature and 80-90% relative humidity for disease expression. A visual assessment of the compound's performance was carried out by rating the disease severity (0-100% scale) on treated plants 3, 7, 10 and 15 days after application. Efficacy (% control) of the compounds was calculated by comparing the disease rating in the treatment with the one of the untreated control. The sprayed plants were also assessed for plant compatibility by recording symptoms like necrosis, chlorosis and stunting.

For CC(SCC(=O)c1ccc(-c2noc(C(F)(F)F)n2)cc1)c1ccccc1 (centres unmarked) [Compound 58, 2-((1-phenylethyl)thio)-1-(4-(5-(trifluoromethyl)-1,2,4-oxadiazol-3-yl)phenyl)ethan-1-one], which pest or weed control at 500 ppm is on record?
The pest or weed control at 500 ppm was no less than 70%.

How did the pest or weed control at 500 ppm turn out when COc1ccccc1OCC(=O)c1ccc(-c2noc(C(F)(F)F)n2)cc1 [Compound 11, 2-(2-methoxyphenoxy)-1-(4-(5-(trifluoromethyl)-1,2,4-oxadiazol-3-yl)phenyl)ethan-1-one] was run?
Its pest or weed control at 500 ppm is no less than 70%.

O=C(COc1ccc(F)cc1Cl)c1ccc(-c2noc(C(F)(F)F)n2)cc1 [Compound 19, 2-(2-chloro-4-fluorophenoxy)-1-(4-(5-(trifluoromethyl)-1,2,4-oxadiazol-3-yl)phenyl)ethan-1-one] was tested. Which pest or weed control at 500 ppm did it give?
Its pest or weed control at 500 ppm is no less than 70%.

Which pest or weed control at 500 ppm does the source give for O=C(CS(=O)(=O)c1cccc(C(F)(F)F)c1)c1ccc(-c2noc(C(F)(F)F)n2)cc1 [Compound 103, 1-(4-(5-(trifluoromethyl)-1,2,4-oxadiazol-3-yl)phenyl)-2-((3-(trifluoromethyl)phenyl)sulfonyl)ethan-1-one] here?
Its pest or weed control at 500 ppm is no less than 70%.

For O=C(COc1ccc(F)nc1)c1ccc(-c2noc(C(F)(F)F)n2)cc1 [Compound 47, 2-((6-fluoropyridin-3-yl)oxy)-1-(4-(5-(trifluoromethyl)-1,2,4-oxadiazol-3-yl)phenyl)ethan-1-one], which pest or weed control at 500 ppm is on record?
Its pest or weed control at 500 ppm is no less than 70%.

With O=C(CSc1cccc(F)c1)c1ccc(-c2noc(C(F)(F)F)n2)cc1 [Compound 64, 2-((3-fluorophenyl)thio)-1-(4-(5-(trifluoromethyl)-1,2,4-oxadiazol-3-yl)phenyl)ethan-1-one] as the molecule, how does the pest or weed control at 500 ppm read?
Its pest or weed control at 500 ppm is no less than 70%.

Which pest or weed control at 500 ppm does the source give for Cc1ccc([S+]([O-])CC(=O)c2ccc(-c3noc(C(F)(F)F)n3)cc2)cc1 (centres unmarked) [Compound 86, 2-(p-tolylsulfinyl)-1-(4-(5-(trifluoromethyl)-1,2,4-oxadiazol-3-yl)phenyl)ethan-1-one] here?
Its pest or weed control at 500 ppm is no less than 70%.

O=C(COc1ccc(Br)cc1)c1ccc(-c2noc(C(F)(F)F)n2)cc1 [Compound 5, 2-(4-bromophenoxy)-1-(4-(5-(trifluoromethyl)-1,2,4-oxadiazol-3-yl)phenyl)ethan-1-one] was tested. Which pest or weed control at 500 ppm did it give?
Its pest or weed control at 500 ppm is no less than 70%.

How did the pest or weed control at 500 ppm turn out when O=C(CSCc1ccccc1)c1ccc(-c2noc(C(F)(F)F)n2)cc1 [Compound 56, 2-(benzylthio)-1-(4-(5-(trifluoromethyl)-1,2,4-oxadiazol-3-yl)phenyl)ethan-1-one] was run?
The pest or weed control at 500 ppm was no less than 70%.

With O=C(CSc1ccc(Cl)cc1)c1ccc(-c2noc(C(F)(F)F)n2)cc1 [Compound 53, 2-((4-chlorophenyl)thio)-1-(4-(5-(trifluoromethyl)-1,2,4-oxadiazol-3-yl)phenyl)ethan-1-one] as the molecule, how does the pest or weed control at 500 ppm read?
Its pest or weed control at 500 ppm is no less than 70%.

O=C(C[S+]([O-])c1ccc(Cl)cc1)c1ccc(-c2noc(C(F)(F)F)n2)cc1 (centres unmarked) [Compound 78, 2-((4-chlorophenyl)sulfinyl)-1-(4-(5-(trifluoromethyl)-1,2,4-oxadiazol-3-yl)phenyl)ethan-1-one] was tested. Which pest or weed control at 500 ppm did it give?
The pest or weed control at 500 ppm was no less than 70%.

With O=C(COc1ccc(C(F)(F)F)cc1)c1ccc(-c2noc(C(F)(F)F)n2)cc1 [Compound 36, 1-(4-(5-(trifluoromethyl)-1,2,4-oxadiazol-3-yl)phenyl)-2-(4-(trifluoromethyl)phenoxy)ethan-1-one] as the molecule, how does the pest or weed control at 500 ppm read?
Its pest or weed control at 500 ppm is no less than 70%.

Cc1cc(F)cc(OCC(=O)c2ccc(-c3noc(C(F)(F)F)n3)cc2)c1 [Compound 41, 2-(3-fluoro-5-methylphenoxy)-1-(4-(5-(trifluoromethyl)-1,2,4-oxadiazol-3-yl)phenyl)ethan-1-one] was tested. Which pest or weed control at 500 ppm did it give?
Its pest or weed control at 500 ppm is no less than 70%.

How did the pest or weed control at 500 ppm turn out when O=C(CS(=O)(=O)C1CCCCC1)c1ccc(-c2noc(C(F)(F)F)n2)cc1 [Compound 100, 2-(cyclohexylsulfonyl)-1-(4-(5-(trifluoromethyl)-1,2,4-oxadiazol-3-yl)phenyl)ethan-1-one] was run?
The pest or weed control at 500 ppm was no less than 70%.

COc1ccc(OCC(=O)c2ccc(-c3noc(C(F)(F)F)n3)cc2)cc1 [Compound 2, 2-(4-methoxyphenoxy)-1-(4-(5-(trifluoromethyl)-1,2,4-oxadiazol-3-yl)phenyl)ethan-1-one] was tested. Which pest or weed control at 500 ppm did it give?
Its pest or weed control at 500 ppm is no less than 70%.

How did the pest or weed control at 500 ppm turn out when Cc1ccc(C(F)(F)F)c(OCC(=O)c2ccc(-c3noc(C(F)(F)F)n3)cc2)n1 [Compound 45, 2-((6-methyl-3-(trifluoromethyl)pyridin-2-yl)oxy)-1-(4-(5-(trifluoromethyl)-1,2,4-oxadiazol-3-yl)phenyl)ethan-1-one] was run?
The pest or weed control at 500 ppm was no less than 70%.

COc1ccc(CS(=O)(=O)CC(=O)c2ccc(-c3noc(C(F)(F)F)n3)cc2)cc1 [Compound 98, 2-((4-methoxybenzyl)sulfonyl)-1-(4-(5-(trifluoromethyl)-1,2,4-oxadiazol-3-yl)phenyl)ethan-1-one] was tested. Which pest or weed control at 500 ppm did it give?
Its pest or weed control at 500 ppm is no less than 70%.

O=C(COc1ccccc1F)c1ccc(-c2noc(C(F)(F)F)n2)cc1 [Compound 1, 2-(2-fluorophenoxy)-1-(4-(5-(trifluoromethyl)-1,2,4-oxadiazol-3-yl)phenyl)ethan-1-one] was tested. Which pest or weed control at 500 ppm did it give?
Its pest or weed control at 500 ppm is no less than 70%.

How did the pest or weed control at 500 ppm turn out when O=C(C[S+]([O-])c1cccc(C(F)(F)F)c1)c1ccc(-c2noc(C(F)(F)F)n2)cc1 (centres unmarked) [Compound 85, 1-(4-(5-(trifluoromethyl)-1,2,4-oxadiazol-3-yl)phenyl)-2-((3-(trifluoromethyl)phenyl)sulfinyl)ethan-1-one] was run?
Its pest or weed control at 500 ppm is no less than 70%.

With O=C(CS(=O)(=O)c1ccc(Cl)cc1)c1ccc(-c2noc(C(F)(F)F)n2)cc1 [Compound 95, 2-((4-chlorophenyl)sulfonyl)-1-(4-(5-(trifluoromethyl)-1,2,4-oxadiazol-3-yl)phenyl)ethan-1-one] as the molecule, how does the pest or weed control at 500 ppm read?
The pest or weed control at 500 ppm was no less than 70%.

How did the pest or weed control at 500 ppm turn out when O=C(COc1ccc(F)cc1)c1ccc(-c2noc(C(F)(F)F)n2)cc1 [Compound 4, 2-(4-fluorophenoxy)-1-(4-(5-(trifluoromethyl)-1,2,4-oxadiazol-3-yl)phenyl)ethan-1-one] was run?
The pest or weed control at 500 ppm was no less than 70%.

With COc1ccc(CSCC(=O)c2ccc(-c3noc(C(F)(F)F)n3)cc2)cc1 [Compound 57, 2-((4-methoxybenzyl)thio)-1-(4-(5-(trifluoromethyl)-1,2,4-oxadiazol-3-yl)phenyl)ethan-1-one] as the molecule, how does the pest or weed control at 500 ppm read?
Its pest or weed control at 500 ppm is no less than 70%.

With Cc1cccc(SCC(=O)c2ccc(-c3noc(C(F)(F)F)n3)cc2)c1 [Compound 67, 2-(m-tolylthio)-1-(4-(5-(trifluoromethyl)-1,2,4-oxadiazol-3-yl)phenyl)ethan-1-one] as the molecule, how does the pest or weed control at 500 ppm read?
The pest or weed control at 500 ppm was no less than 70%.

How did the pest or weed control at 500 ppm turn out when O=C(CSc1ccc(Cl)c(Cl)c1)c1ccc(-c2noc(C(F)(F)F)n2)cc1 [Compound 52, 2-((3,4-dichlorophenyl)thio)-1-(4-(5-(trifluoromethyl)-1,2,4-oxadiazol-3-yl)phenyl)ethan-1-one] was run?
Its pest or weed control at 500 ppm is no less than 70%.

Which pest or weed control at 500 ppm does the source give for O=C(CSc1ccccc1F)c1ccc(-c2noc(C(F)(F)F)n2)cc1 [Compound 65, 2-((2-fluorophenyl)thio)-1-(4-(5-(trifluoromethyl)-1,2,4-oxadiazol-3-yl)phenyl)ethan-1-one] here?
The pest or weed control at 500 ppm was no less than 70%.

How did the pest or weed control at 500 ppm turn out when O=C(CS(=O)(=O)c1ccc(F)c(F)c1)c1ccc(-c2noc(C(F)(F)F)n2)cc1 [Compound 96, 2-((3,4-difluorophenyl)sulfonyl)-1-(4-(5-(trifluoromethyl)-1,2,4-oxadiazol-3-yl)phenyl)ethan-1-one] was run?
Its pest or weed control at 500 ppm is no less than 70%.

Which pest or weed control at 500 ppm does the source give for O=C(COc1ccc(Cl)cc1Cl)c1ccc(-c2noc(C(F)(F)F)n2)cc1 [Compound 20, 2-(2,4-dichlorophenoxy)-1-(4-(5-(trifluoromethyl)-1,2,4-oxadiazol-3-yl)phenyl)ethan-1-one] here?
The pest or weed control at 500 ppm was no less than 70%.

O=C(C[S+]([O-])c1cccc(F)c1)c1ccc(-c2noc(C(F)(F)F)n2)cc1 (centres unmarked) [Compound 87, 2-((3-fluorophenyl)sulfinyl)-1-(4-(5-(trifluoromethyl)-1,2,4-oxadiazol-3-yl)phenyl)ethan-1-one] was tested. Which pest or weed control at 500 ppm did it give?
The pest or weed control at 500 ppm was no less than 70%.

Cc1ccc(OCC(=O)c2ccc(-c3noc(C(F)(F)F)n3)cc2)cc1 [Compound 34, 2-(p-tolyloxy)-1-(4-(5-(trifluoromethyl)-1,2,4-oxadiazol-3-yl)phenyl)ethan-1-one] was tested. Which pest or weed control at 500 ppm did it give?
The pest or weed control at 500 ppm was no less than 70%.

Which pest or weed control at 500 ppm does the source give for O=C(COc1ccc(Cl)cc1)c1ccc(-c2noc(C(F)(F)F)n2)cc1 [Compound 6, 2-(4-chlorophenoxy)-1-(4-(5-(trifluoromethyl)-1,2,4-oxadiazol-3-yl)phenyl)ethan-1-one] here?
The pest or weed control at 500 ppm was no less than 70%.

For COc1cccc(SCC(=O)c2ccc(-c3noc(C(F)(F)F)n3)cc2)c1 [Compound 14, 2-((3-methoxyphenyl)thio)-1-(4-(5-(trifluoromethyl)-1,2,4-oxadiazol-3-yl)phenyl)ethan-1-one], which pest or weed control at 500 ppm is on record?
The pest or weed control at 500 ppm was no less than 70%.

For Cc1csc(SCC(=O)c2ccc(-c3noc(C(F)(F)F)n3)cc2)n1 [Compound 26, 2-((4-methylthiazol-2-yl)thio)-1-(4-(5-(trifluoromethyl)-1,2,4-oxadiazol-3-yl)phenyl)ethan-1-one], which pest or weed control at 500 ppm is on record?
The pest or weed control at 500 ppm was no less than 70%.

System: Pyricularia oryzae
Assay: microbe, parasite or virus in culture
Type: cell-based
Details: 168 h, read-out: control

Cc1cccc(S(=O)(=O)CC(=O)c2ccc(-c3noc(C(F)(F)F)n3)cc2)c1 [Compound 110, 2-(m-tolylsulfonyl)-1-(4-(5-(trifluoromethyl)-1,2,4-oxadiazol-3-yl)phenyl)ethan-1-one] was tested. Which inhibition of growth at 300 ppm did it give?
Its inhibition of growth at 300 ppm is no less than 70%.

How did the inhibition of growth at 300 ppm turn out when Nc1cc[n+](CC(=O)c2ccc(-c3noc(C(F)(F)F)n3)cc2)cc1 [Compound 148, 4-amino-1-(2-oxo-2-(4-(5-(trifluoromethyl)-1,2,4-oxadiazol-3-yl)phenyl)ethyl)pyridin-1-ium bromide] was run?
The inhibition of growth at 300 ppm was no less than 70%.

O=C(CSCc1ccccc1)c1ccc(-c2noc(C(F)(F)F)n2)cn1 [Compound 118, 2-(benzylthio)-1-(5-(5-(trifluoromethyl)-1,2,4-oxadiazol-3-yl)pyridin-2-yl)ethan-1-one] was tested. Which inhibition of growth at 300 ppm did it give?
The inhibition of growth at 300 ppm was no less than 70%.
